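Test compounds were applied to cells in 96-well plates for 48 hours at 5 doses. At the GI50, growth is halved.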 The source made the active and inactive calls. Rule as the data show it: active = GI50 up to about 1.1 µM and inactive = higher.
Columns and labels:
Assay in all cases: inhibition of tumour cell growth, NCI panel, 48 h
[1] = test system: ACHN
[2] = test system: M14
[3] = test system: SR
[4] = test system: T47D
[5] = test system: NCI/ADR-RES
[6] = test system: MCF7
[7] = test system: MDA-MB-231
[8] = test system: MDA-MB-435
[9] = test system: PC-3
[10] = test system: RXF 393
[11] = test system: 786-0
[12] = test system: LOX IMVI
[13] = test system: HOP-92
[14] = test system: Hs-578T
[15] = test system: BT-549
[16] = test system: TK-10
[17] = test system: M19-MEL
[18] = test system: KM-20L2
[19] = test system: DMS-273
[20] = test system: DLD-1

Row | SMILES | GI50 [1] | GI50 [2] | GI50 [3] | GI50 [4] | GI50 [5] | GI50 [6] | GI50 [7] | GI50 [8] | GI50 [9] | GI50 [10] | GI50 [11] | GI50 [12] | GI50 [13] | GI50 [14] | GI50 [15] | GI50 [16] | GI50 [17] | GI50 [18] | GI50 [19] | GI50 [20]
1 | Brc1ccc(/C(N=N/C(=N\Sc2ccccc2)c2ccc(Br)cc2)=N/Sc2ccccc2)cc1 | > 61.1 µM (inactive) | > 100 µM (inactive) | > 86.9 µM (inactive) | > 100 µM (inactive) | > 100 µM (inactive) | > 100 µM (inactive) | > 100 µM (inactive) | > 100 µM (inactive) | > 100 µM (inactive) | > 100 µM (inactive) | > 100 µM (inactive) | > 100 µM (inactive) | > 100 µM (inactive) | > 100 µM (inactive) | > 100 µM (inactive) | > 100 µM (inactive) |  |  |  | 
2 | CCCC(=O)Nc1cc(/C=C/C(=O)N2CC(CCl)c3c2cc(OCc2ccccc2)c2[nH]cc(C)c32)n(C)c1 (stereo not given) | 0.013 µM (active) | 0.142 µM (active) | 0.00444 µM (active) | 0.225 µM (active) | 0.0238 µM (active) | 0.0025 µM (active) | 0.247 µM (active) | 0.251 µM (active) | 0.103 µM (active) | 0.0383 µM (active) | 0.0365 µM (active) | 0.0817 µM (active) | 0.0698 µM (active) | 0.14 µM (active) | 0.159 µM (active) | 0.533 µM (active) |  |  |  | 
3 | CC(C)NC(=O)OCc1c(COC(=O)NC(C)C)c(-c2cc[n+](COC(=O)Cc3ccccc3)cc2)n2c1CCC2 | 40.5 µM (inactive) | > 100 µM (inactive) | 9.59 µM (inactive) | > 100 µM (inactive) | > 100 µM (inactive) | 67.5 µM (inactive) | > 100 µM (inactive) | > 100 µM (inactive) | > 100 µM (inactive) | > 100 µM (inactive) | 46 µM (inactive) | > 100 µM (inactive) | > 100 µM (inactive) | > 100 µM (inactive) | > 100 µM (inactive) | > 100 µM (inactive) |  |  |  | 
4 | CCN(CC)c1ccc2c(c1)Oc1ccc(N(C(C)=O)c3ccccc3)cc1C21OC(=O)c2ccccc21 (stereo not given) | > 100 µM (inactive) | 40.6 µM (inactive) | 23.3 µM (inactive) | 5.32 µM (inactive) | > 61.8 µM (inactive) | 40.3 µM (inactive) | > 100 µM (inactive) | 21 µM (inactive) | 13.1 µM (inactive) | > 26.1 µM (inactive) | > 100 µM (inactive) | > 100 µM (inactive) | > 67.3 µM (inactive) | 58.3 µM (inactive) | 98.2 µM (inactive) | > 100 µM (inactive) |  |  |  | 
5 | COC(=O)c1sc(=NC(=S)N2CCCCC2)sc1C(=O)OC | > 100 µM (inactive) | > 100 µM (inactive) | 22.9 µM (inactive) |  |  |  |  |  |  | > 100 µM (inactive) | > 100 µM (inactive) |  |  |  |  | > 100 µM (inactive) | 5.69 µM (inactive) | > 100 µM (inactive) | 18.2 µM (inactive) | > 100 µM (inactive)
6 | C#Cc1c(C)c(/C=C/C(C)=C\C(=O)OC)n(C)c1C | 47.8 µM (inactive) | > 100 µM (inactive) |  |  |  |  |  |  |  |  | 55.1 µM (inactive) | > 100 µM (inactive) | > 100 µM (inactive) |  |  | > 100 µM (inactive) | > 100 µM (inactive) | 46.6 µM (inactive) | > 100 µM (inactive) | 45.4 µM (inactive)
7 | O=C1C2=C(c3ccccc31)C(c1ccc(Cl)cc1)NC(S)=N2 (stereo not given) | 42.7 µM (inactive) | 23.3 µM (inactive) |  |  |  |  |  |  |  |  | 17.9 µM (inactive) |  | 16 µM (inactive) |  |  | 22.8 µM (inactive) | 20 µM (inactive) | 20.4 µM (inactive) | 20.3 µM (inactive) | 22.8 µM (inactive)
8 | CN(C)CCCNc1ccc2nnn3c4ccc(O)cc4c(=O)c1c23 | 1.26 µM (inactive) | 7.89 µM (inactive) | 0.193 µM (active) | 21 µM (inactive) | 4.56 µM (inactive) | 5.7 µM (inactive) | 10.7 µM (inactive) | 8.22 µM (inactive) | 2.84 µM (inactive) | 0.149 µM (active) | 2.86 µM (inactive) | 1.16 µM (inactive) | 4.26 µM (inactive) | 1.41 µM (inactive) | 18.8 µM (inactive) | 4.67 µM (inactive) | 12.6 µM (inactive) | 3.3 µM (inactive) |  | 1.42 µM (inactive)
9 | COC(=O)c1ccc2c(c1)CCN2C(=O)c1cc2c(cc1Br)OCO2 | 5.19 µM (inactive) | 0.276 µM (active) | 0.0817 µM (active) | 4.11 µM (inactive) | 0.342 µM (active) | 0.251 µM (active) | 1.65 µM (inactive) | 0.151 µM (active) | 0.573 µM (active) | 0.863 µM (active) | 0.74 µM (active) | 3.11 µM (inactive) | 8.69 µM (inactive) | 0.658 µM (active) | 7.18 µM (inactive) | 2 µM (inactive) |  |  |  | 
10 | C/C(=N\NC(=S)N1CCN(c2ccccn2)CC1)c1cccc(C)n1 | 3 µM (inactive) | 0.261 µM (active) | 1.44 µM (inactive) | 0.528 µM (active) | < 0.01 µM (active) | < 0.01 µM (active) | < 0.01 µM (active) | 3.61 µM (inactive) | < 0.01 µM (active) | 1.32 µM (inactive) | 1.9 µM (inactive) | 2.15 µM (inactive) | 3.81 µM (inactive) | 12.6 µM (inactive) | 5.26 µM (inactive) | 7.78 µM (inactive) |  |  |  | 
11 | COc1ccc(C23C(=O)c4ccccc4N2O[C@H]2C(=O)N(c4ccccc4)C(=O)[C@H]23)cc1 (stereo not given in full) | > 100 µM (inactive) | > 100 µM (inactive) |  |  |  |  |  |  |  | > 100 µM (inactive) | > 100 µM (inactive) | > 100 µM (inactive) | > 100 µM (inactive) |  |  | > 100 µM (inactive) | > 100 µM (inactive) | > 100 µM (inactive) | > 100 µM (inactive) | > 100 µM (inactive)
12 | COc1ccc(/C=N/NC(=O)NCCCN(C)C)cc1 | > 100 µM (inactive) |  |  |  |  |  |  |  |  | > 100 µM (inactive) |  | 85.9 µM (inactive) |  |  |  | > 100 µM (inactive) |  |  | > 100 µM (inactive) | > 100 µM (inactive)
13 | N=C1OC(CN2CCN(c3ccccc3)CC2)CN1C(=S)Nc1ccccc1 (stereo not given) | 66.5 µM (inactive) | 55 µM (inactive) | 29.8 µM (inactive) | 35.6 µM (inactive) | 45.4 µM (inactive) | 37.2 µM (inactive) | > 100 µM (inactive) | 76.6 µM (inactive) | 65.3 µM (inactive) | 41.1 µM (inactive) | > 100 µM (inactive) | 25.3 µM (inactive) | 21.9 µM (inactive) | 13 µM (inactive) | 62.2 µM (inactive) | 43.5 µM (inactive) |  |  |  | 
14 | CS(=O)(=O)OCC1=C(COS(C)(=O)=O)C(=O)c2c(O)ccc(O)c2C1=O | > 100 µM (inactive) | > 100 µM (inactive) | > 100 µM (inactive) |  |  |  |  |  |  |  |  |  | > 100 µM (inactive) |  |  | > 100 µM (inactive) |  | > 100 µM (inactive) | > 100 µM (inactive) | > 100 µM (inactive)
15 | CCCCCC/C(CC(=O)CCC(=O)NCCc1ccccc1)=N\NC(=O)c1ccc2ccccc2c1O | 28.2 µM (inactive) | 33.3 µM (inactive) |  |  |  |  |  |  |  | 50.4 µM (inactive) | 31.6 µM (inactive) | 17.7 µM (inactive) | 33 µM (inactive) |  |  | 64.7 µM (inactive) | 23.3 µM (inactive) | 35.1 µM (inactive) |  | 36.9 µM (inactive)
